Here are results for seven compounds from patent publication US4798828A, “Heterocyclic-methylene-penems” (Beecham Group p.l.c., priority 1984, dated 1989).

≈ marks a conversion by molar mass, not a printed value.

Common to all, as to experiment: Antibacterial activity of compounds alone (MIC)
Holding throughout (assay type): cell-based
Settings in all cases: compound alone, amoxycillin: typical MIC's from a number of tests, read-out: MIC (minimum inhibitory concentration)

For assay [1], the system named is P mirabilis C889. From the text:
(§1) The following Table 1 summaries the antibacterial activity of selected compounds according to the invention (which are identified by compound numbers as given in the examples) against selected micro-organisms and, for comparison purposes, also gives the same data for amoxycillin. The data is given in the form of MIC values (minimum inhibitory concentration)in μg/ml.

Assay [2] concerns C freundii Mantio.
Excerpt: as §1

The test system of assay [3] is E aerogenes N1.
Excerpt: as §1

Assay [4] relates to E coli JT410.
Excerpt: as §1

In the case of `Cn1cc(/C=C2/C(=O)N3C(C(=O)O)=CSC23)nn1` (racemic) [88(a), (5RS) Sodium (Z)-6-(1-methyl-1,2,3-triazol-4-yl-methylene)penem-3-carboxylate], the MIC in assay [1] stood at 128 µg/mL; in assay [2] it was 128 µg/mL; in assay [3] it was 128 µg/mL; in assay [4], 64 µg/mL.

On to `O=C(O)C1=CSC2/C(=C\c3ccns3)C(=O)N12` (racemic) [Compound 11, (5RS) Sodium (Z)-6-(5-Isothiazolylmethylene)penem-3-carboxylate], for which the MIC in assay [1], in assay [2], in assay [3] and in assay [4] was > 100 µg/mL in each case.

Take `O=C(O)C1=CSC2/C(=C\c3ccon3)C(=O)N12` (racemic) [Compound 43, (5RS) Sodium (Z)-6-(Isoxazol-3-ylmethylene)penem-3-carboxylate]: the MIC in assay [1] is 256 µg/mL; in assay [2], 256 µg/mL; in assay [3], > 512 µg/mL; in assay [4], > 512 µg/mL.

Consider `Cc1nc(/C=C2/C(=O)N3C(C(=O)O)=CSC23)co1` (racemic) [Compound 78, (5RS) Sodium (Z)-6-[(2-methyloxazol-4-yl)methylene]penem-3-carboxylate], for which the MIC was 256 µg/mL in assay [1], > 512 µg/mL in assay [2], > 512 µg/mL in assay [3] and > 512 µg/mL in assay [4].

`Cn1ccc(/C=C2/C(=O)N3C(C(=O)O)=CSC23)n1` (racemic) [Compound 169, (5RS) Sodium (Z)-6-(1-methylpyrazol-3-ylmethylene)penem-3-carboxylate]: the MIC in assay [1] turned out to be 256 µg/mL; in assay [2], 256 µg/mL; in assay [3], 512 µg/mL; in assay [4], 512 µg/mL.

On to `CC1(C)S[C@@H]2[C@H](NC(=O)[C@H](N)c3ccc(O)cc3)C(=O)N2[C@H]1C(=O)O` [Amoxycillin, reference compound], for which the MIC in assay [1] was > 512 µg/mL; in assay [2], > 512 µg/mL; in assay [3], 512 µg/mL (≈ 1400 µM); in assay [4] it was 256 µg/mL (≈ 701 µM).

Take `Cn1cc(/C=C2/C(=O)N3C(C(=O)O)=CS[C@H]23)nn1` [Compound 158, (5R) Sodium (Z)-6-(1-methyl-1,2,3-triazol-4-ylmethylene) penem-3-carboxylate]: the MIC is 64 µg/mL in assay [1], 64 µg/mL in assay [2], 256 µg/mL in assay [3] and 32 µg/mL in assay [4].
